Measurements published in patent US11667945B2, “Detection method and detection probe for colibactin and colibactin-producing bacteria” (priority 2017, dated 2023).
Where a SMILES comes first, the peptide text is derived from it. [ ]: non-standard residue; d: D form. The star is where a group is joined. Myristoyl = CCCCCCCCCCCCCC(=O)*; AMC = Cc1cc(=O)oc2cc(N*)ccc12

What was measured:
[1] = tested on: colibactin positive bacterium; experiment: Detection of colibactin positive bacterium among Escherichia coli separated from colorectal tissue samples (Example 5); format: cell-based; settings: 100 μM probe in LB, 37° C., 24 hours, threshold 100; 100 PCR-positive and 100 PCR-negative samples
Excerpt: In this Example, detection of a colibactin positive bacterium was tried by applying probe I to Escherichia coli bacteria separated from colon tissue samples (n=100) in which colibactin biosynthetic genes had been detected by PCR methods and colon tissue samples (n=100) in which colibactin biosynthetic genes had not been detected.
Escherichia coli bacteria were separated by homogenizing a human colorectal tissue sample with physiological saline and smearing the homogenized sample onto a MacConkey plate medium, and culturing it. […] Based on the presence or absence of an amplified fragment as an index, a colibactin positive bacterium or not was evaluated.
To evaluate the sensitivity and accuracy for detecting a colibactin positive bacterium by probe I, 100 Escherichia coli bacterium samples were prepared by separating Escherichia coli bacterium from colon tissue samples in which a colibactin positive bacterium was detected by the above PCR method; and 100 Escherichia coli bacterium samples separated were prepared by separating Escherichia coli bacterium from colon tissue samples in which a colibactin positive bacterium was not detected by the above PCR method. […] Measurement at λex 380 mm/λem 460 mm was carried out by a plate reader. The difference in fluorescence intensity between assay A and assay B (background) was obtained and the threshold was determined as 100. […]

[2] = tested on: colibactin-producing Escherichia coli; experiment: Assay using cultured Escherichia coli, colibactin-producing versus non-producing strains (Example 4); format: cell-based; settings: probe 20 μM in LB medium, 37° C., 24 hours or more, particularly after extraction; producers 5263, 5491, Nissle vs non-producers 1246, 1649T
Method: As Escherichia coli not producing colibactin, 1246 strain and 1649T strain were used. As the colibactin-producing Escherichia coli, 5263 strain, 5491 strain and Nissle strain were used.
Escherichia coli were cultured overnight and seeded (20 μL) in LB medium (2 to 4 mL) and further a 20 mM DMSO solution of probe 1 was added thereto so as to obtain a final concentration of 20 μM (DMSO final concentration: 0.1%), and cultured at 37° C. and 100 rpm for 24 hours or more while shaking. After reaction, the reaction solution (200 μL) was taken and centrifuged. The supernatant (200 μL) was directly subjected to detection performed at λex 380 mm/λem 460 mm (unextracted). The reaction solution (200 μL) was newly taken and ethyl acetate (500 μL) was added thereto. After sufficiently suspended, the suspension was centrifuged. The ethyl acetate layer (450 μL) of the supernatant was recovered and concentrated. To the concentrate, milliQ water (200 μL) was added. The mixture was sufficiently suspended and centrifuged. The supernatant (200 μL) was subjected to detection (after extraction) performed at λex 380 mm/λem 460 mm.

[3] = tested on: enzyme encoded by ClbP gene; experiment: Detection of ClbP enzyme / colibactin-producing E. coli in lyophilized fecal samples by fluorescent probe (Example 3); format: biochemical, Escherichia coli; settings: probe 20 μM, lyophilized human feces suspended in milliQ water, 37° C., 24 hours or more, after extraction and unextracted
Method: The feces samples (obtained from different 4 human subjects) lyophilized were each scooped 10 times by a spoon (about 40 mg) and suspended in milliQ water (200 μl). To the suspension, the 20 mM DMSO solution of probe 1 was added so as to obtain a final concentration of 20 μM (DMSO final concentration 0.1%). Thereafter, the suspension was shaken at 37° C. and 100 rpm for 24 hours or more. After the reaction, the reaction solution (200 μLS) was taken and centrifuged. The supernatant (200 μL) was directly subjected to detection performed at λex380 mm/λem460 mm (unextracted). The reaction solution (200 μL) was newly taken, sufficiently suspended by adding ethyl acetate (500 μL) and centrifuged. The ethyl acetate layer (450 μL) of the supernatant was collected and concentrated. To the concentrate, milliQ water (200 μL) was added. The mixture was sufficiently suspended and centrifuged. The supernatant (200 μL) was subjected to detection performed at λex380 mm/λem460 mm (after extraction). In FIG. 2, the detection results of 4 fecal samples are shown separately by “feces is present_1” to “feces is present_4”, respectively.

[4] = tested on: colibactin positive bacterium; experiment: Detection of colibactin positive bacterium using cultured fecal samples (Example 6); format: cell-based, Escherichia coli; settings: colonies from human fecal samples, LB with 100 μM probe, 24 hours, λex 380 mm/λem 460 mm, compared with PCR
Method: Fecal samples obtained from human subjects were dissolved in water, applied to a plate comprising a MacConkey medium and cultured at 37° C. for 12 hours. The resultant red-purple colony was picked up, inoculated in LB liquid medium comprising 100 μM probe I and cultured for 24 hours. Fluorescence (λex 380 mm/λem 460 mm) was measured by a plate reader. These samples were checked for the presence or absence of a colibactin positive bacterium by a PCR method in the same manner as in Example 5 and the correlation with the fluorescence intensity generated from probe I was examined.

| Compound | accuracy of detecting a colibactin positive bacterium [1] [%] | false positive rate (a rate determining a negative bacterium as a positive bacterium) [1] | detection of colibactin-producing Escherichia coli based on the fluorescence intensity of the probe [2] | fluorescence of the probe on contact with feces (ClbP dependent cleavage to AMC) [3] | detection of colibactin positive bacterium present in fecal samples [4] |
| --- | --- | --- | --- | --- | --- |
| CCCCCCCCCCCCCC(=O)NC(CC(N)=O)C(=O)Nc1ccc2c(C)cc(=O)oc2c1 (stereo not drawn) [probe 1] | 100 | less than 1% | colibactin-producing Escherichia coli can be detected | fluorescence was regained | highly sensitively and accurately detected |
| CCCCCCCCCCCCCC(=O)N[C@H](CC(N)=O)C(=O)N[C@@H](C)C(=O)Nc1ccc2c(C)cc(=O)oc2c1 [probe 2] (Myristoyl-[dN]-Ala-{AMC}) | – | – | – | same results | – |
